Experimental data taken from patent US20250377365A1, “METHODS INVOLVING DETECTING TNF STIMULATED GENE 6 (TSG-6) FOR IMPROVING ANTI-TUMOR RESPONSES TO IMMUNE THERAPY IN CANCER PATIENTS” (BOARD OF REGENTS, THE UNIVERSITY OF TEXAS SYSTEM, priority 2022, published 2025).

System: bone marrow-derived macrophages (BMDM)
Test: In vitro macrophage polarization assay (RT-qPCR gene expression)
Format: cell-based, mice
Conditions: 0.5 mg/mL recombinant TSG6, 2 days, qPCR vs GAPDH, FIG. 3C
Text: To determine if fibroblast secreted TSG-6 regulates the presence the distinct myeloid subsets between melanoma and pancreatic TME, the inventors performed receptor-ligand studies between the myeloid subsets and fibroblasts. First, the inventors analyzed the relative expression of TSG-6 and its binding partner CD44 in the fibroblasts and macrophage/neutrophil subsets. While TSG-6 was expressed slightly higher in the mT4 tumors as compared to B16F10 tumors, its ligand CD44 was primarily expressed in the macrophage/neutrophil subsets only in the mT4 tumors (FIG. 3A). To determine if this observation correlates with higher interactions between TSG-6 and suppressive myeloid subsets in the mT4 tumors, the inventors performed receptor-ligand interaction studies using CellChat analysis (PMID: 33597522). The analysis indicated strong communication probabilities of fibroblast expressed TSG-6 and myeloid CD44 interaction only in the mT4 tumors and not B16F10 tumors (FIG. 3B). To further evaluate whether TSG-6 regulates the immunosuppressive macrophage phenotype, the inventors performed an in vitro macrophage polarization assay. The inventors stimulated bone marrow-derived macrophages (BMDM) with either LPS or recombinant TSG-6 (rTSG-6) and observed that rTSG-6 increased the expression of Arg1, Mafb, Mrc1, and Vista in the macrophages and suppressed Ifng expression (FIG. 3C). Thus, the above data indicates TSG-6 interacts with suppressive intratumoral myeloid subsets and might have a role to play in resistance to ICT.
TSG-6 stimulated bone marrow derived macrophages (BMDM) and RT-qPCR Gene Expression: BMDM were isolated from the femurs of wild type C57/BL6 mice in ice cold complete RPMI 1640 media. Both epiphyses were removed before the bones were placed in sterile microfuge tubes and centrifuged at 500×g for 5 minutes at 4° C. to extrude the bone marrow. The collected bone marrow was homogenized by pipetting followed by RBC lysis. The single cell suspension of bone marrow cells obtained, was counted in an automated Vicell cell counter before 2.0e6 cells/well were cultured in Iscove's Modified Dulbecco's Medium (IMDM) supplemented with 10% FBS and 10 ng/ml Macrophage colony-stimulating factor (M-CSF) (Biolegend, Cat #576404)) in a 12 well plate. On Day 3, cells were resuspended in fresh growth media and on Day 7, cells were subjected to fresh complete IMDM containing 100 ng/ml LPS (InvivoGen, Cat #tlrl-eblps) and 0.5 mg/mL recombinant TSG6 (R&D Systems, Cat #2326-TS-050) and left in culture for 2 days. Supernatants were removed and adhered macrophages were subjected to Accutase cell detachment solution following manufacturers protocol (Innovative Cell Technologies, 07920). Macrophages were resuspended and centrifuged at 350×g for 8 minutes. Cell pellets were lysed with 350 uL buffer RLT lysis buffer (Qiagen, 74104) supplemented with B-ME and subjected to RNA extraction using RNA mini extraction kit (Qiagen, 74104). cDNA was synthesized using the NEB LunaScript RT SuperMix Kit (E3010L) and 30 ng of total cDNA was used for each 20 uL qPCR reaction. Taqman gene expression Real-Time PCR assays were run using manufacturers protocol and gene targets were compared to GAPDH housekeeping expression (GAPDH, Mm05724508_g1; IFNg, Mm01168134_m1; Mrc1, Mm01329359_m1; Arg1, Mm00475988_m1; Mafb, Mm00627481_s1, VISTA, Mm00472312_m1).

rTSG-6: recombinant TSG6 protein, R&D Systems, Cat #2326-TS-050
Ifng expression: suppressed | expression of Arg1: increased | expression of Mafb: increased | expression of Mrc1: increased | expression of Vista: increased
